Peptide text beside a SMILES is read from it. * marks the point of attachment. Cbz = O=C(OCc1ccccc1)*; CH2F = FC*
Legend:
caspase-3, caspase-8 = experiment: Western blot for caspase cleavage; format: cell-based, human; conditions: U2OS, 20 μM pretreatment 1 h
tumor cell lines = experiment: MTT cell viability assay; format: cell-based, human; conditions: 20 μM pretreatment 1 h, then 20 μM PES 24 h
Procedure: Cell viability assays were performed using an MTT (methyl thiazolyl tetrazolium) colorimetric assay (Roche Applied Science, Cat. No. 11 465 007 001), with the following modifications. Briefly, cells (1×10^4) were plated into 24 well-assay plates in 0.5 ml media and allowed to attach overnight. […] After the incubation period, 50 μl of the water-soluble MTT labeling reagent [3-[4,5-dimethylthiazol-2-yl]-2,5-diphenyl tetrazolium bromid] were added to the cells, and the cells were incubated for 4 h in a humidified chamber at 37° C. with 5% CO2. The metabolized insoluble formazan crystals were then solubilized using 0.5 ml of the Solubilization solution (10% SDS in 0.01M HCl) per well, and the resulting colored solutions were spectrophotometrically quantified at an absorbance of 570 nm.

p62/SQSTM1, LC3 = experiment: Autophagy markers in cultured cells (vacuoles, LC3-II, p62/SQSTM1, electron microscopy); format: cell-based, human; conditions: for p62/SQSTM1 oligomers in soluble and detergent-insoluble fractions: 24 h, PES 20 μM, Velcade 100 nM, CQ 50 μM, 17-AAG 15 nM
HSP70 [1] = target: T1, HSP70 (Homo sapiens, UniProt P0DMV8); experiment: In vitro binding of B-PES on NeutrAvidin resins to 35S-labelled in vitro translated protein
Target sequence in this assay (P0DMV8 whole entry): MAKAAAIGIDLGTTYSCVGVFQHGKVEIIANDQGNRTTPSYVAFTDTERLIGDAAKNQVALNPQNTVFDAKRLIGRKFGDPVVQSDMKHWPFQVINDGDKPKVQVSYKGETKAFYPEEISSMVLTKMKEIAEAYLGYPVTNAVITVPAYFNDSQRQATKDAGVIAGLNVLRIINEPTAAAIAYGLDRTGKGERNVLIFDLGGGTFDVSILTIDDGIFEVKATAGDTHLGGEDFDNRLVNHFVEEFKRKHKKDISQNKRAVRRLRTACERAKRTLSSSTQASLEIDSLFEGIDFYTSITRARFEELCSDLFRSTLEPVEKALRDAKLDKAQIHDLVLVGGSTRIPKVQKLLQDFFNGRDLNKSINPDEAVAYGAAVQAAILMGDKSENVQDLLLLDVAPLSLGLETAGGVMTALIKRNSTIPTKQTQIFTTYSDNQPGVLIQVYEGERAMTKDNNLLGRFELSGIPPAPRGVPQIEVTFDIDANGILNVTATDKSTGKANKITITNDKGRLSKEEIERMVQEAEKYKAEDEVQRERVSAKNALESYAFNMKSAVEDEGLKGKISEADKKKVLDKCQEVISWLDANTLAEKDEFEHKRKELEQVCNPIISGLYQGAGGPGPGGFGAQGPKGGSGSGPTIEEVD

HSP70 [2] = target: T1, HSP70; experiment: Capture of HA-tagged HSP70 constructs from transfected H1299 cells with biotinylated compound; format: binding; design: expressed in transfected cells; host or cells: H1299
Procedure: FIG. 1. PES Binds to HSP70. (A) Whole cell extracts (WCE) prepared from A875 and BCL-xL over-expressing U2OS human osteosarcoma cells (BX-U2OS) cells, treated with Biotin or Biotin-PES (B-PES), were captured using NeutrAvidin agarose resins. HSP70-family proteins were identified as the major product in the excised band of ˜70 kDa shown in both Coomassie gels. (B and C) WCE were prepared from the cell lines indicated following 24 h treatment with 20 μM Biotin or B-PES and examined for the expression of proteins indicated (left panel of B and C) by western blot analysis; note that different exposure times were used to visualize these proteins. […] (D) In vitro evidence for an interaction between B-PES and HSP70. Full-length human HSP70 and human HSP90 proteins were in vitro translated in the presence of ^35S-methionine, mixed with B-PES coupled to NeutrAvidin resins, and eluted using 100 mM DTT. The resulting DTT eluates were separated by polyacrylamide gel electrophoresis (SDS-PAGE) and visualized by autoradiography. (E) B-PES interacts with the C-terminal region of HSP70. H1299 cells were transfected with the indicated hemagglutinin (HA)-tagged constructs and exposed to B-PES. B-PES containing complexes were captured by NeutrAvidin Resins, eluted following 100 mM DTT treatment, and immunoblotted with anti-HA antibody following SDS-PAGE. (F) Non-transformed human IMR90 fibroblasts or H1299 lung carcinoma cells were treated with the indicated concentrations of PES for 24 h and cell viability was determined by MTT assays. (G) WCE were prepared from the cell lines indicated following 5 hr treatment with 20 μM PES or B-PES and examined for the expression of proteins indicated (left panel) by western blot analysis; note that different exposure times were used to visualize these proteins. B-PES-containing complexes were captured by NeutrAvidin resins, eluted following 50 mM DTT treatment, and immunoblotted using the indicated antibodies.
The free amide group of PES-Cl was biotinylated and added to HA-tagged HSP70-transfected H1299 cells. The treatment of the cells occurred for 6 hours. The complexes were pulled down with NeutrAvidin beads, eluted with 100 mM DTT treatments, separated with SDS-PAGE and detected with anti-HA antibody (Millipore) by Western blot.
Docking studies were performed using the C-terminal HSP70 crystal structure (FIG. 32) to elucidate the PES binding site in silico (FIG. 33). Blind docking methods were used in the program AutoDock to locate potential PES binding sites. These methods use a course grid docking approach, encompassing the entire protein, to identify favorable binding sites using a known binding ligand, and are examined by hand to support the AutoDock data. […]

HSP70 [3] = target: T1, HSP70; experiment: Biotin-PES complexes captured with NeutrAvidin resins from treated cells, IP-WB; conditions: 20 μM
Target sequence in this assay (P0DMV8 whole entry): as above

HSC70 = HSC70 (Homo sapiens, UniProt P11142); experiment: as above; conditions: 20 μM
GRP78 = GRP78 (Homo sapiens, UniProt P11021); experiment: as above; conditions: 20 μM, 24 h
HSP90 = experiment: as above; conditions: 20 μM, 24 h
HSP70 [4] = target: T1, HSP70; experiment: Competition of untagged PES with B-PES for HSP70; format: binding; design: endogenous in cells; host or cells: human tumor cell lines (A875, BX-U2OS, U2OS, H1299, MiaPaCa2, HepG2, SKBR3, 293T); conditions: purified HSP70, 0.25 mM B-PES, 0.125 mM untagged PES
Procedure: FIG. 15. Evidence supporting HSP70 as the cellular target of PES. (A) Competition studies in vivo support HSP70 as a PES target. H1299 cells were either pre-treated with DMSO or excess (25×) untagged PES for 1 h prior to the addition of 20 μM Biotin-PES (B-PES) for 5 h, and examined for the expression of proteins indicated (left). B-PES-containing complexes were captured by NeutrAvidin Resins, and immunoblotted using the indicated antibodies. […] (B) Competition studies in vitro support HSP70 as a PES target. Purified HSP70 protein was incubated with 0.25 mM B-PES in the absence and in the presence of 0.125 mM untagged PES.
Target sequence in this assay (P0DMV8 whole entry): as above

20S proteasome = experiment: Cell-based 20S proteasome activity assay; design: species or system human; conditions: H1299 or A875 cells; PES 20 μM, 17-AAG 1 μM, CQ 5 μM
EGFR, HER2/ErbB2, AKT = experiment: Western blot of HSP70/HSP90 client proteins in detergent-soluble and detergent-insoluble fractions; format: cell-based, human
Procedure: FIG. 17. PES impairs the proteasome system. (A) Cell-based 20S proteasome activity assay of H1299 or A875 human tumor cells treated with DMSO, 20 μM PES, 100 nM Velcade (proteasome inhibitor), 1 μM 17-AAG (HSP90 inhibitor), 5 μM CQ (lysosome inhibitor), or 20S proteasome inhibitor epigallocatechin gallate (EGCG). Each graphical representation indicates the mean±SD of at least three independent cultures relative to control (DMSO-treated) cells. (B) Cell extracts from SKBR3 human breast carcinoma cells, treated either with 20 μM PES or 1 μM 17-AAG for 24 h, were immunoprecipitated (IP) using anti-HSP70 or anti-HSP90 antibody. […] MTT assays of MCF7 human breast carcinoma cells pretreated with DMSO, or 5 μM PES for 1 h, followed by the addition of indicated amount of 17-AAG for 47 h. The results represent the mean±SD of at least three independent analysis of cultures relative to control (DMSO-treated) cells. (D and E) H1299 cells (D) or SKBR3 cells (E) were treated with DMSO, 20 μM PES, 17-AAG, or 17-AAG plus bortezomib (Velcade) as indicated; harvested in 1% NP-40 containing lysis buffer; fractionated into detergent-soluble and detergent-insoluble preparations; and assayed by western blot.
FIG. 18. Accumulation of HSP90 client proteins in the protein detergent-insoluble fraction following PES. (A) SKOV3 cells were treated with DMSO, 10 μM PES, or 20 μM PES for 24 h. Note the marked accumulation of EGFR, HER2/ErbB2, and AKT in the detergent-insoluble fraction following 20 μM PES treatment. (B and C) SKOV3 (B) or SKBR3 (C) cells were treated with DMSO, 20 μM PES, or 1 μM 17-AAG, as indicated, for 24 h. Cells were harvested in 1% NP-40 containing lysis buffer, fractionated into detergent-soluble and detergent-insoluble preparations, and assayed by western blot for the proteins indicated.
The HSP70 and HSC70 proteins bind to exposed hydrophobic regions of nascent-, translocating-, misfolded- or partially unfolded-proteins. These ATP-dependent molecular chaperones act in multi-protein complexes in conjunction with one or more regulatory co-chaperones to carry out multiple cellular functions. […] This is illustrated for H1299 cells treated with 10 or 20 μM PES for 24 h. […] This correlates with a reduced abundance of complexes containing HSP70, or HSC70, together with client proteins or co-chaperones (FIGS. 19A and 19B). […] However, since HSP70/HSC70 act as critical co-chaperones for HSP90, for example in client protein recruitment, PES-mediated alteration in the function of the 70-kDa molecular chaperones could be reflected in an altered behavior or expression of many client proteins. To test this idea, we examined the expression of a few well-established HSP90 client proteins, including the transmembrane tyrosine kinase receptors EGFR and HER2/ERBB2, and the downstream signaling factor AKT. These proteins are overexpressed, or aberrantly expressed, in a variety of human tumors, and have been implicated in cancer etiology and pathology. As a control for these studies, we compared the effects of PES to that of the well-established HSP90 inhibitor, 17-allylamino-17-demethoxygeldanamycin (17-AAG). 17-AAG interacts with the N-terminal region of HSP90 and inhibits its ATPase activity; this disrupts interactions of HSP90 with client proteins and leads to client-protein degradation via the ubiquitin-proteasome pathway (Whitesell, et al. 2005; Neckers, et al. 2007). To examine the expression of some HSP70/HSP90 clients, we used western blot analysis of detergent-soluble (clarified) whole cell extracts.

HSC70, sequence (P11142 whole entry): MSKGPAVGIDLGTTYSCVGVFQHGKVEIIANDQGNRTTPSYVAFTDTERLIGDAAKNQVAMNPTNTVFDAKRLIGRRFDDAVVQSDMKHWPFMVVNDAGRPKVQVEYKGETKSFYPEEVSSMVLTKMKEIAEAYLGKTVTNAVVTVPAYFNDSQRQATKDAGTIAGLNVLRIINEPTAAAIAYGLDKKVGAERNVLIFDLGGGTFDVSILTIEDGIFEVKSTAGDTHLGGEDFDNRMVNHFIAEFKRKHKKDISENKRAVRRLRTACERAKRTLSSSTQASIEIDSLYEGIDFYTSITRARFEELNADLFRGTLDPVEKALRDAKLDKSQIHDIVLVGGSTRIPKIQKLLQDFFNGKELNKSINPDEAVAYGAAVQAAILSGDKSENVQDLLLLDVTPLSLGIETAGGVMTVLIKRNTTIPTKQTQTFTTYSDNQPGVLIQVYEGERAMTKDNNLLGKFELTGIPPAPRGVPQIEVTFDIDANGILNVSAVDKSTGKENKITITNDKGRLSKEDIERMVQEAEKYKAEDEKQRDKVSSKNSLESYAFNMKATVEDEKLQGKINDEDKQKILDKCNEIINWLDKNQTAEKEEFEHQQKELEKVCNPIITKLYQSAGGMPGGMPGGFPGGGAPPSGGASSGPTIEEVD
GRP78, sequence (P11021 19-654): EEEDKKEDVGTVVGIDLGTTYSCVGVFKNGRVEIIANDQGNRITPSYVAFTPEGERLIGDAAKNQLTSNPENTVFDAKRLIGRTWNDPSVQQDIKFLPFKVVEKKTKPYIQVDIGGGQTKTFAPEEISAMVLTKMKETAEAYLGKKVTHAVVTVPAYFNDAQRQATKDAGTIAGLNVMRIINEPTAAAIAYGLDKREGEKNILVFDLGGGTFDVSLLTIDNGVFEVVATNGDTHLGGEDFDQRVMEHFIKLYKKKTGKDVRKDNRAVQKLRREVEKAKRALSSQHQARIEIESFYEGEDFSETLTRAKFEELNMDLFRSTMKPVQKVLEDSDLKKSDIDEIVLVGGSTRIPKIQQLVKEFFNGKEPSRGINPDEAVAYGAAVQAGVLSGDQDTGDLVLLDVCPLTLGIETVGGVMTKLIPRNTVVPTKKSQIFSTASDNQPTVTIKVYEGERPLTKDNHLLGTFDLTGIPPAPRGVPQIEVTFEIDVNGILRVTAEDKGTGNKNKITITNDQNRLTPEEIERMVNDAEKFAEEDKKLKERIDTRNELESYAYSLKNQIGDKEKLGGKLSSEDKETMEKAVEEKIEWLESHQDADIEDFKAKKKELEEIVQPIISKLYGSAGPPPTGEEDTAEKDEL

In the case of `COC(=O)C[C@H](NC(=O)[C@H](C)NC(=O)[C@@H](NC(=O)OCc1ccccc1)C(C)C)C(=O)CF` [Z-VAD-FMK] (Cbz-Val-Ala-Asp(OMe)-CH2F), the “cisplatin- and camptothecin-mediated caspase cleavage” value (caspase-3, caspase-8) is reported as “inhibited cisplatin- as well as camptothecin-mediated caspase cleavage” and the “effect on PES-mediated loss of cell viability” value (tumor cell lines) is reported as “did not alter PES-mediated loss of cell viability”.
With `C[C@@H]1C[C@@H]([C@H](O)CC2CC(=O)NC(=O)C2)C(=O)[C@@H](C)C1` [CHX, cycloheximide] the “PES-induced p62/SQSTM1 accumulation and oligomerization under co-treatment” value (p62/SQSTM1, LC3; co-treated with PES for 6 h) was “reduced the accumulation and oligomerization of the autophagy marker p62/SQSTM1”.
`O=C(CCCCC1SCC2NC(=O)NC21)NCCSSCCC(=O)NS(=O)(=O)C#Cc1ccccc1` (centres unmarked) [B-PES] was tested, and the “interaction with in vitro translated HSP70” value (HSP70 [1]) was “interacts with in vitro translated HSP70”, the “interaction with amino-terminal ATPase domain of HSP70” value (HSP70 [2]; amino acids 2-385) was “not the amino-terminal ATPase domain” and the “interaction with carboxyl-terminal substrate-binding domain of HSP70” value (HSP70 [2]; amino acids 386-641) was “interacts with the carboxyl-terminal substrate-binding domain”. For the same compound, the “HSP70 captured with B-PES” value (HSP70 [3]; IMR90 fibroblasts) was “did not observe a PES interaction”, the “interaction with endogenous HSP70” value (HSP70 [3]; several cell lines, 24 h) was “interacts with HSP70” and the “HSP70 captured with B-PES” value (HSP70 [3]; tumor cells, 5 hr (FIG. 1G)) was “found together with this small molecule”. The “interaction with endogenous HSC70” value (HSC70; 24 h) was “no detectable interaction”, the “HSC70 captured with B-PES” value (HSC70; IMR90 fibroblasts) was “did not observe a PES interaction” and the “HSC70 captured with B-PES” value (HSC70; tumor cells, 5 hr (FIG. 1G)) was “found together with this small molecule”. For the same compound, the “interaction with endogenous GRP78” value (GRP78) was “no detectable interaction”, the “interaction with endogenous HSP90” value (HSP90) was “no detectable interaction” and the B-PES/HSP70 complex formation (HSP70 [4]) was “direct interaction between B-PES and HSP70”.
`CC(C)C[C@H](NC(=O)[C@H](Cc1ccccc1)NC(=O)c1cnccn1)B(O)O` [Velcade, bortezomib] was tested, and the “p62/SQSTM1 oligomers in soluble and detergent-insoluble fractions” value (p62/SQSTM1, LC3) was “promoted p62/SQSTM1 oligomerization primarily in the detergent-insoluble fraction”.
For `C=CCNC1=C2C[C@@H](C)C[C@H](OC)[C@H](O)[C@@H](C)/C=C(\C)[C@H](OC(N)=O)[C@@H](OC)/C=C\C=C(/C)C(=O)NC(=CC1=O)C2=O` [17-AAG, 17-allylamino-17-demethoxygeldanamycin], the “p62/SQSTM1 oligomers in soluble and detergent-insoluble fractions” value (p62/SQSTM1, LC3) was “neither p62/SQSTM1 accumulation nor oligomerization was noted”, the “activity of the 20S proteasome” value (20S proteasome) was “little, if any, effect” and the “fate of HSP90 client proteins” value (EGFR, HER2/ErbB2, AKT) was “causes proteasome-mediated degradation of HSP90 client proteins”. For the same compound, the “overall cellular abundance of EGFR, HER2/ErbB2 and AKT” value (EGFR, HER2/ErbB2, AKT; SKBR3 cells, detergent-soluble extracts, 24 h) was “reduction in the overall cellular abundance”.
